Test results published in patent US20250230193A1, “CYCLIC COMPOUND HAVING SELECTIVE KRAS INHIBITORY EFFECT ON HRAS AND NRAS” (CHUGAI SEIYAKU KABUSHIKI KAISHA, priority 2022, published 2025).

What was measured:
[1] = molecular target: GDP-bound NRAS wild-type protein (Homo sapiens, UniProt P01111); assay: Binding to NRAS by surface plasmon resonance (SPR), Single Cycle Kinetics; conditions: KD ratio, GDP-bound NRAS wild-type vs GDP-bound KRAS wild-type, SPR
[2] = molecular target: GDP-bound HRAS wild-type protein (Homo sapiens, UniProt P01112); assay: Binding to HRAS by surface plasmon resonance (SPR), Single Cycle Kinetics; conditions: KD ratio, GDP-bound HRAS wild-type vs GDP-bound KRAS wild-type, SPR
GDP-bound HRAS wild-type protein, sequence (P01112 whole entry): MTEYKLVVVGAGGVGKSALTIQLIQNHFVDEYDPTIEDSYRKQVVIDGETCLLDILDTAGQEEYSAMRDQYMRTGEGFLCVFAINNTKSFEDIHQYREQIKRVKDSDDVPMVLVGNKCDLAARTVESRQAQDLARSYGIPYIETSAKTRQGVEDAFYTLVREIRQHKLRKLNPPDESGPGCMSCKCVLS

GDP-bound NRAS wild-type protein, sequence (P01111 whole entry): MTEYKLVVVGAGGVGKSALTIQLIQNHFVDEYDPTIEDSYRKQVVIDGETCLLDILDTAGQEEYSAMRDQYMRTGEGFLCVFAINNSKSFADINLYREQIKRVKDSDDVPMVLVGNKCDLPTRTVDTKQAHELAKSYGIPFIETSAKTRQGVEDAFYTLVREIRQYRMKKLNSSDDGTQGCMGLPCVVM

CCO[C@@H]1C[C@H]2C(=O)NC3(CCC3)C(=O)N(C)[C@@H](C3CCCC3)C(=O)N(C)[C@H](C(=O)N(C)C)CC(=O)N(C)[C@@H](Cc3ccc(F)cc3)C(=O)N[C@@H]([C@@H](C)CC)C(=O)N(C)CC(=O)N(C)[C@H]3CCCCCN(C3=O)[C@@H](Cc3ccc(C(F)(F)F)cc3)C(=O)N(C)CC(=O)N[C@@H](CCc3cc(F)c(C(F)(F)F)c(F)c3)C(=O)N2C1 [PP0936]
NRAS/KRAS (ratio of KD value with respect to NRAS to KD value with respect to KRAS) [1]: B (a compound having 3 or more and less than 10 is denoted as B) | HRAS/KRAS (ratio of KD value with respect to HRAS to KD value with respect to KRAS) [2]: B (a compound having 3 or more and less than 10 is denoted as B)

CCO[C@@H]1C[C@H]2C(=O)NC3(CCC3)C(=O)N(C)[C@@H](C3CCCC3)C(=O)N(C)[C@H](C(=O)N(C)C)CC(=O)N(C)[C@@H](Cc3ccc(F)c(F)c3)C(=O)N[C@@H]([C@@H](C)CC)C(=O)N(C)CC(=O)N(C)[C@H]3CCCCCN(C3=O)[C@@H](Cc3ccc(C(F)(F)F)cc3)C(=O)N(C)CC(=O)N[C@@H](CCc3cc(F)c(C(F)(F)F)c(F)c3)C(=O)N2C1 [PP0937]
NRAS/KRAS (ratio of KD value with respect to NRAS to KD value with respect to KRAS) [1]: B (a compound having 3 or more and less than 10 is denoted as B) | HRAS/KRAS (ratio of KD value with respect to HRAS to KD value with respect to KRAS) [2]: B (a compound having 3 or more and less than 10 is denoted as B)

CCO[C@@H]1C[C@H]2C(=O)NC3(CCC3)C(=O)N(C)[C@@H](C3CCCC3)C(=O)N(C)[C@H](C(=O)N(C)C)CC(=O)N(C)[C@@H](Cc3cccc(Cl)c3)C(=O)N[C@@H]([C@@H](C)CC)C(=O)N(C)CC(=O)N(C)[C@H]3CCCCCN(C3=O)[C@@H](Cc3ccc(C(F)(F)F)cc3)C(=O)N(C)CC(=O)N[C@@H](CCc3cc(F)c(C(F)(F)F)c(F)c3)C(=O)N2C1 [PP0939]
NRAS/KRAS (ratio of KD value with respect to NRAS to KD value with respect to KRAS) [1]: B (a compound having 3 or more and less than 10 is denoted as B) | HRAS/KRAS (ratio of KD value with respect to HRAS to KD value with respect to KRAS) [2]: B (a compound having 3 or more and less than 10 is denoted as B)

CCO[C@@H]1C[C@H]2C(=O)NC3(CCC3)C(=O)N(C)[C@@H](C3CCCC3)C(=O)N(C)[C@H](C(=O)N(C)C)CC(=O)N(C)[C@@H](Cc3ccc(Cl)cc3)C(=O)N[C@@H]([C@@H](C)CC)C(=O)N(C)CC(=O)N(C)[C@H]3CCCCCN(C3=O)[C@@H](Cc3ccc(C(F)(F)F)cc3)C(=O)N(C)CC(=O)N[C@@H](CCc3cc(F)c(C(F)(F)F)c(F)c3)C(=O)N2C1 [PP0940]
NRAS/KRAS (ratio of KD value with respect to NRAS to KD value with respect to KRAS) [1]: B (a compound having 3 or more and less than 10 is denoted as B) | HRAS/KRAS (ratio of KD value with respect to HRAS to KD value with respect to KRAS) [2]: C (A compound having a KD ratio of 0.1 or more and less than 3 is denoted as C)

CCO[C@@H]1C[C@H]2C(=O)NC3(CCC3)C(=O)N(C)[C@@H](C3CCCC3)C(=O)N(C)[C@H](C(=O)N(C)C)CC(=O)N(C)[C@@H](Cc3ccccc3C)C(=O)N[C@@H]([C@@H](C)CC)C(=O)N(C)CC(=O)N(C)[C@H]3CCCCCN(C3=O)[C@@H](Cc3ccc(C(F)(F)F)cc3)C(=O)N(C)CC(=O)N[C@@H](CCc3cc(F)c(C(F)(F)F)c(F)c3)C(=O)N2C1 [PP0941]
NRAS/KRAS (ratio of KD value with respect to NRAS to KD value with respect to KRAS) [1]: B (a compound having 3 or more and less than 10 is denoted as B) | HRAS/KRAS (ratio of KD value with respect to HRAS to KD value with respect to KRAS) [2]: B (a compound having 3 or more and less than 10 is denoted as B)

CCO[C@@H]1C[C@H]2C(=O)NC3(CCC3)C(=O)N(C)[C@@H](C3CCCC3)C(=O)N(C)[C@H](C(=O)N(C)C)CC(=O)N(C)[C@@H](Cc3cccc(C)c3)C(=O)N[C@@H]([C@@H](C)CC)C(=O)N(C)CC(=O)N(C)[C@H]3CCCCCN(C3=O)[C@@H](Cc3ccc(C(F)(F)F)cc3)C(=O)N(C)CC(=O)N[C@@H](CCc3cc(F)c(C(F)(F)F)c(F)c3)C(=O)N2C1 [PP0942]
NRAS/KRAS (ratio of KD value with respect to NRAS to KD value with respect to KRAS) [1]: B (a compound having 3 or more and less than 10 is denoted as B) | HRAS/KRAS (ratio of KD value with respect to HRAS to KD value with respect to KRAS) [2]: B (a compound having 3 or more and less than 10 is denoted as B)

CCO[C@@H]1C[C@H]2C(=O)NC3(CCC3)C(=O)N(C)[C@@H](C3CCCC3)C(=O)N(C)[C@H](C(=O)N(C)C)CC(=O)N(C)[C@@H](Cc3ccc(C)cc3)C(=O)N[C@@H]([C@@H](C)CC)C(=O)N(C)CC(=O)N(C)[C@H]3CCCCCN(C3=O)[C@@H](Cc3ccc(C(F)(F)F)cc3)C(=O)N(C)CC(=O)N[C@@H](CCc3cc(F)c(C(F)(F)F)c(F)c3)C(=O)N2C1 [PP0943]
NRAS/KRAS (ratio of KD value with respect to NRAS to KD value with respect to KRAS) [1]: B (a compound having 3 or more and less than 10 is denoted as B) | HRAS/KRAS (ratio of KD value with respect to HRAS to KD value with respect to KRAS) [2]: B (a compound having 3 or more and less than 10 is denoted as B)

CCO[C@@H]1C[C@H]2C(=O)NC3(CCC3)C(=O)N(C)[C@@H](C3CCCC3)C(=O)N(CC)[C@H](C(=O)N3CCOCC3)CC(=O)N(C)[C@@H](CC)C(=O)N[C@@H]([C@@H](C)CC)C(=O)N(C)CC(=O)N(C)[C@H]3CCCCCN(C3=O)[C@@H](Cc3ccc(C(F)(F)F)cc3)C(=O)N(C)CC(=O)N[C@@H](CCc3cc(F)c(C(F)(F)F)c(F)c3)C(=O)N2C1 [PP0944]
NRAS/KRAS (ratio of KD value with respect to NRAS to KD value with respect to KRAS) [1]: A (a compound having 10 or more and less than 20 is denoted as A) | HRAS/KRAS (ratio of KD value with respect to HRAS to KD value with respect to KRAS) [2]: A (a compound having 10 or more and less than 20 is denoted as A)

CCO[C@@H]1C[C@H]2C(=O)NC3(CCC3)C(=O)N(C)[C@@H](C3CCCC3)C(=O)N(CC)[C@H](C(=O)N3CCOCC3)CC(=O)N(C)[C@@H](CO)C(=O)N[C@@H]([C@@H](C)CC)C(=O)N(C)CC(=O)N(C)[C@H]3CCCCCN(C3=O)[C@@H](Cc3ccc(C(F)(F)F)cc3)C(=O)N(C)CC(=O)N[C@@H](CCc3cc(F)c(C(F)(F)F)c(F)c3)C(=O)N2C1 [PP0945]
NRAS/KRAS (ratio of KD value with respect to NRAS to KD value with respect to KRAS) [1]: B (a compound having 3 or more and less than 10 is denoted as B) | HRAS/KRAS (ratio of KD value with respect to HRAS to KD value with respect to KRAS) [2]: A (a compound having 10 or more and less than 20 is denoted as A)

CCO[C@@H]1C[C@H]2C(=O)NC3(CCC3)C(=O)N(C)[C@@H](C3CCCC3)C(=O)N(CC)[C@H](C(=O)N3CCOCC3)CC(=O)N(C)[C@@H](COC)C(=O)N[C@@H]([C@@H](C)CC)C(=O)N(C)CC(=O)N(C)[C@H]3CCCCCN(C3=O)[C@@H](Cc3ccc(C(F)(F)F)cc3)C(=O)N(C)CC(=O)N[C@@H](CCc3cc(F)c(C(F)(F)F)c(F)c3)C(=O)N2C1 [PP0946]
NRAS/KRAS (ratio of KD value with respect to NRAS to KD value with respect to KRAS) [1]: A (a compound having 10 or more and less than 20 is denoted as A) | HRAS/KRAS (ratio of KD value with respect to HRAS to KD value with respect to KRAS) [2]: B (a compound having 3 or more and less than 10 is denoted as B)

CCO[C@@H]1C[C@H]2C(=O)NC3(CCC3)C(=O)N(C)[C@@H](C3CCCC3)C(=O)N(CC)[C@H](C(=O)N3CCOCC3)CC(=O)N(C)[C@@H](CCOC)C(=O)N[C@@H]([C@@H](C)CC)C(=O)N(C)CC(=O)N(C)[C@H]3CCCCCN(C3=O)[C@@H](Cc3ccc(C(F)(F)F)cc3)C(=O)N(C)CC(=O)N[C@@H](CCc3cc(F)c(C(F)(F)F)c(F)c3)C(=O)N2C1 [PP0947]
NRAS/KRAS (ratio of KD value with respect to NRAS to KD value with respect to KRAS) [1]: A (a compound having 10 or more and less than 20 is denoted as A) | HRAS/KRAS (ratio of KD value with respect to HRAS to KD value with respect to KRAS) [2]: A (a compound having 10 or more and less than 20 is denoted as A)

CCO[C@@H]1C[C@H]2C(=O)NC3(CCC3)C(=O)N(C)[C@@H](C3CCCC3)C(=O)N(CC)[C@H](C(=O)N3CCOCC3)CC(=O)N(C)[C@@H](CCC(F)F)C(=O)N[C@@H]([C@@H](C)CC)C(=O)N(C)CC(=O)N(C)[C@H]3CCCCCN(C3=O)[C@@H](Cc3ccc(C(F)(F)F)cc3)C(=O)N(C)CC(=O)N[C@@H](CCc3cc(F)c(C(F)(F)F)c(F)c3)C(=O)N2C1 [PP0948]
NRAS/KRAS (ratio of KD value with respect to NRAS to KD value with respect to KRAS) [1]: A (a compound having 10 or more and less than 20 is denoted as A) | HRAS/KRAS (ratio of KD value with respect to HRAS to KD value with respect to KRAS) [2]: A (a compound having 10 or more and less than 20 is denoted as A)

CCO[C@@H]1C[C@H]2C(=O)NC3(CCC3)C(=O)N(C)[C@@H](C3CCCC3)C(=O)N(CC)[C@H](C(=O)N3CCOCC3)CC(=O)N(C)[C@@H](CCC(Cl)Cl)C(=O)N[C@@H]([C@@H](C)CC)C(=O)N(C)CC(=O)N(C)[C@H]3CCCCCN(C3=O)[C@@H](Cc3ccc(C(F)(F)F)cc3)C(=O)N(C)CC(=O)N[C@@H](CCc3cc(F)c(C(F)(F)F)c(F)c3)C(=O)N2C1 [PP0949]
NRAS/KRAS (ratio of KD value with respect to NRAS to KD value with respect to KRAS) [1]: A (a compound having 10 or more and less than 20 is denoted as A) | HRAS/KRAS (ratio of KD value with respect to HRAS to KD value with respect to KRAS) [2]: A (a compound having 10 or more and less than 20 is denoted as A)

CCO[C@@H]1C[C@H]2C(=O)NC3(CCC3)C(=O)N(C)[C@@H](C3CCCC3)C(=O)N(CC)[C@H](C(=O)N3CCOCC3)CC(=O)N(C)[C@@H](Cc3ccccc3)C(=O)N[C@@H]([C@@H](C)CC)C(=O)N(C)CC(=O)N(C)[C@H]3CCCCCN(C3=O)[C@@H](Cc3ccc(C(F)(F)F)cc3)C(=O)N(C)CC(=O)N[C@@H](CCc3cc(F)c(C(F)(F)F)c(F)c3)C(=O)N2C1 [PP0950]
NRAS/KRAS (ratio of KD value with respect to NRAS to KD value with respect to KRAS) [1]: A (a compound having 10 or more and less than 20 is denoted as A) | HRAS/KRAS (ratio of KD value with respect to HRAS to KD value with respect to KRAS) [2]: B (a compound having 3 or more and less than 10 is denoted as B)

CCO[C@@H]1C[C@H]2C(=O)NC3(CCC3)C(=O)N(C)[C@@H](C3CCCC3)C(=O)N(CC)[C@H](C(=O)N3CCOCC3)CC(=O)N(C)[C@@H](CCc3ccccc3)C(=O)N[C@@H]([C@@H](C)CC)C(=O)N(C)CC(=O)N(C)[C@H]3CCCCCN(C3=O)[C@@H](Cc3ccc(C(F)(F)F)cc3)C(=O)N(C)CC(=O)N[C@@H](CCc3cc(F)c(C(F)(F)F)c(F)c3)C(=O)N2C1 [PP0953]
NRAS/KRAS (ratio of KD value with respect to NRAS to KD value with respect to KRAS) [1]: A (a compound having 10 or more and less than 20 is denoted as A) | HRAS/KRAS (ratio of KD value with respect to HRAS to KD value with respect to KRAS) [2]: A (a compound having 10 or more and less than 20 is denoted as A)

CC[C@H](C)[C@@H]1NC(=O)[C@H](CC(C)C)N(C)C(=O)C[C@@H](C(=O)N2CCOCC2)N(CC)C(=O)[C@H](C2CCCC2)N(C)C(=O)C2(CCC2)NC(=O)[C@@H]2CC(F)(F)CN2C(=O)[C@H](CCc2cc(F)c(C(F)(F)F)c(F)c2)NC(=O)CN(C)C(=O)[C@H](Cc2ccc(C(F)(F)F)cc2)N2CCCCC[C@@H](C2=O)N(C)C(=O)CN(C)C1=O [PP0954]
NRAS/KRAS (ratio of KD value with respect to NRAS to KD value with respect to KRAS) [1]: A (a compound having 10 or more and less than 20 is denoted as A) | HRAS/KRAS (ratio of KD value with respect to HRAS to KD value with respect to KRAS) [2]: A (a compound having 10 or more and less than 20 is denoted as A)
